Data on 14 compounds can be found in ChEMBL document CHEMBL1201862, “PubChem BioAssay data set” (2004).

Active and inactive are the calls of the source.

In one series the test system is SN12K1. The experiment in a line: cells. Format: functional. Particulars: Homo sapiens.
The next series has as its system P388/ADR. In words: cells. Format: functional. Particulars: Mus musculus.
A further series deals with T1, Cytochrome P450 1A2 (Homo sapiens, UniProt P05177).
T1 sequence (P05177 whole entry): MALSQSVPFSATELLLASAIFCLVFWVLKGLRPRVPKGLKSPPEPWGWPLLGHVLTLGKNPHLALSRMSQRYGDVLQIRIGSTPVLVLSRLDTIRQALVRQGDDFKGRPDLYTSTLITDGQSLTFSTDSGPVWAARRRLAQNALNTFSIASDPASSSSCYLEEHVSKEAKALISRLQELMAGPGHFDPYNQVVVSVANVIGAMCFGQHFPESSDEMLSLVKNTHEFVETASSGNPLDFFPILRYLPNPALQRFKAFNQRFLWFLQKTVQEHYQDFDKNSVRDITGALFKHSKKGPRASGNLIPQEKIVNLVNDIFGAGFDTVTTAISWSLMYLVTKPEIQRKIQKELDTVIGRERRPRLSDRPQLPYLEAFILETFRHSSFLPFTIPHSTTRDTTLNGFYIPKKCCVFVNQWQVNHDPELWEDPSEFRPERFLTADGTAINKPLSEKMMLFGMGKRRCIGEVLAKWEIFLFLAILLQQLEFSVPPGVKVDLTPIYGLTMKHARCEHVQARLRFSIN

A further series addresses Cytochrome P450 2C9 (Homo sapiens, UniProt P11712).
A further series concerns the target Cytochrome P450 2C19 (Homo sapiens, UniProt P33261). The experiment in a line: Cytochrome panel assay with activity outcomes. Panel member name: p450-cyp2c19 Compounds with AC50 equal or less than 10 uM are considered active. In kind it is functional. Particulars: read-out: AC50.
The next series deals with Cytochrome P450 3A4 (Homo sapiens, UniProt P08684).
Chain of Cytochrome P450 3A4 (P08684 whole entry): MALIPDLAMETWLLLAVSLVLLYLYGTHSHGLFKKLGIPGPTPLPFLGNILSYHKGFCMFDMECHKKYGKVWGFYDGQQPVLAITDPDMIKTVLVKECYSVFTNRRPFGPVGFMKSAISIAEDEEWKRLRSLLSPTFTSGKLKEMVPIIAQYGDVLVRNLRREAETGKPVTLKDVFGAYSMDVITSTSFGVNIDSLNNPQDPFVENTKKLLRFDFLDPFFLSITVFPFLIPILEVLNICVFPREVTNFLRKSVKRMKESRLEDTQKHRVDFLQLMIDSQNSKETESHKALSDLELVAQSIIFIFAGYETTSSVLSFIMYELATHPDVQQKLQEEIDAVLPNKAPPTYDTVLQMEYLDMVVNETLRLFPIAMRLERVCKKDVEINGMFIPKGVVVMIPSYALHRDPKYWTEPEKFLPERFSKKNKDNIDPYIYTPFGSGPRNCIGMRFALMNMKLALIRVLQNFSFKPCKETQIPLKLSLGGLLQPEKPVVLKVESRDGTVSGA
Series [1] is described as follows: intracellular Trypanosoma cruzi inhibitors in host cells – cell-based, plate reader, cherry-pick samples, set 3, dose response (AID 651818).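 Also: compounds incubated with infected cells for about four days.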 Format: functional.
The target in series [2] is T2, Type-1 angiotensin II receptor (Homo sapiens, UniProt P30556).
T2 sequence (P30556 whole entry): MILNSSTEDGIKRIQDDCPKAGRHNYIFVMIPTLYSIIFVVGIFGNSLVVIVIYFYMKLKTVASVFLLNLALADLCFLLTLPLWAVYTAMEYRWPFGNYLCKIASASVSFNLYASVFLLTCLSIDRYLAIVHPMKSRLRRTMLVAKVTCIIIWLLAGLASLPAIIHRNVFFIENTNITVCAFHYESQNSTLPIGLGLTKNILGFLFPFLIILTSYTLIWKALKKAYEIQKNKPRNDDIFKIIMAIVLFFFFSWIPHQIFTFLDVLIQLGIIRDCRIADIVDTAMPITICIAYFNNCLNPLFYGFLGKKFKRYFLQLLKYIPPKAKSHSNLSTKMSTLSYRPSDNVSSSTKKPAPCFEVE
The experiment in a line: AT1 receptor antagonists, dose response, selectivity assay for APJ receptor antagonist project, cell-based, uHTS hits (AID 463214).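 Also: antagonist potency against angiotensin II stimulated AT1 response.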 In kind it is functional.

In another series the target is Beta-galactosidase (Escherichia coli, UniProt Q8VNN2). The experiment in a line: PubChem AID 485352. In kind it is functional.
Chain of Beta-galactosidase (Q8VNN2 whole entry): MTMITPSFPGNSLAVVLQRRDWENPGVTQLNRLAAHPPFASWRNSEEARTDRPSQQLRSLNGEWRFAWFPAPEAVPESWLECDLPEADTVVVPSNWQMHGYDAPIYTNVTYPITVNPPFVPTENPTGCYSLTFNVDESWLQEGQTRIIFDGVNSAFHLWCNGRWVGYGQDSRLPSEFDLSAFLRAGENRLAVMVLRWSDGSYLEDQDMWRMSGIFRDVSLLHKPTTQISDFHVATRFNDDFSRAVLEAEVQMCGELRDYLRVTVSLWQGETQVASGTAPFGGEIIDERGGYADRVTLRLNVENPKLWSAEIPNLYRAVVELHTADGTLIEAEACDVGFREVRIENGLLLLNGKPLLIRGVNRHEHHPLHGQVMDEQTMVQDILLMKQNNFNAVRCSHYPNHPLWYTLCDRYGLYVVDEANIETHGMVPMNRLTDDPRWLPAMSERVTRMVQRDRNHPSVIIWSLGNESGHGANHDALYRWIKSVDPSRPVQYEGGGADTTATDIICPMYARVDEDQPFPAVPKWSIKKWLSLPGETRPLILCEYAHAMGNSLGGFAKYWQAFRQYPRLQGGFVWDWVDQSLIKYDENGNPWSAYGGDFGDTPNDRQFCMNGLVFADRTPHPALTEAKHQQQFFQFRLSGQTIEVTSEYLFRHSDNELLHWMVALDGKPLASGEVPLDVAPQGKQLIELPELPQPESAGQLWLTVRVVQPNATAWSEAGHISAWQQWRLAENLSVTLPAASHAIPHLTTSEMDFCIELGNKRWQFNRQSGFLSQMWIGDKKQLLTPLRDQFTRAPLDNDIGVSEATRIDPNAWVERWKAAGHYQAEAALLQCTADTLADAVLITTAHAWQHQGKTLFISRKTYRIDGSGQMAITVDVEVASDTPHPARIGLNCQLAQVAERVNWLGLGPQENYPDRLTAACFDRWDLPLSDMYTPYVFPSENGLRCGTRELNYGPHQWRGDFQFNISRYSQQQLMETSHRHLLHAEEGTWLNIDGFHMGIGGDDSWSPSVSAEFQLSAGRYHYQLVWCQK
Series [3] deals with T3, Apoptotic protease-activating factor 1 (Homo sapiens, UniProt O14727).
T3 sequence (O14727 whole entry): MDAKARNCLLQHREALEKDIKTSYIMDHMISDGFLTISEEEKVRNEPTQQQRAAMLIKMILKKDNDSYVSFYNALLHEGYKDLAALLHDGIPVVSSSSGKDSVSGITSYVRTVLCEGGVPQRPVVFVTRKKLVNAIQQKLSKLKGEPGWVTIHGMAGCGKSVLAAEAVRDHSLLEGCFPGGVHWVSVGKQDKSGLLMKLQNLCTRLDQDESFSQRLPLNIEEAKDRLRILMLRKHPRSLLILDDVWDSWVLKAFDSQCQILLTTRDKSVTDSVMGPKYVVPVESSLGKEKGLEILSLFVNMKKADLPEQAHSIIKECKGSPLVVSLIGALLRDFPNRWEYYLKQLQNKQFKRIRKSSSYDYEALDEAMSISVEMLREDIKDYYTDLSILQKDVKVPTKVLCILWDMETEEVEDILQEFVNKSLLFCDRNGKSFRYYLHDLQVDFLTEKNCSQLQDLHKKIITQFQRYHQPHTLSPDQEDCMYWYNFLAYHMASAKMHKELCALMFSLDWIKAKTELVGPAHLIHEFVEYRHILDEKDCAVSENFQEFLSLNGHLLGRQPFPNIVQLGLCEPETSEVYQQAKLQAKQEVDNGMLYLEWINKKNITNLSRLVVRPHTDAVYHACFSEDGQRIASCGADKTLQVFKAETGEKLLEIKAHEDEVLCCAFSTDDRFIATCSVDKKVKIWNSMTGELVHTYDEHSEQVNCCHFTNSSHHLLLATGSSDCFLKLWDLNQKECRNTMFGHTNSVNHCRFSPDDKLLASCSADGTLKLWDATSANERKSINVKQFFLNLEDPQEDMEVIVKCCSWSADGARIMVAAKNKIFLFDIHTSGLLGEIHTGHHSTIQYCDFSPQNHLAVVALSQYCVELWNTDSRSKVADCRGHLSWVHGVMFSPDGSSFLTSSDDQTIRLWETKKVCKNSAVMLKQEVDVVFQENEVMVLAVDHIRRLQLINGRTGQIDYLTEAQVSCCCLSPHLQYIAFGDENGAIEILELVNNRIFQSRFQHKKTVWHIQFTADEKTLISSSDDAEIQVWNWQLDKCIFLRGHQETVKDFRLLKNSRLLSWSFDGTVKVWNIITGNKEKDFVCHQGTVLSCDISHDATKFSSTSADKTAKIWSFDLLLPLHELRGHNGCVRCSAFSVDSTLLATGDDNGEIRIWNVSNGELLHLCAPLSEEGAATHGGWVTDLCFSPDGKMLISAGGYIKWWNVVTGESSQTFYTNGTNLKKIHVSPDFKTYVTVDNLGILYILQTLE
Format: functional.

In a further series the target is T4, Protein RecA (Mycobacterium tuberculosis, UniProt P9WHJ3).
T4 sequence (P9WHJ3 whole entry): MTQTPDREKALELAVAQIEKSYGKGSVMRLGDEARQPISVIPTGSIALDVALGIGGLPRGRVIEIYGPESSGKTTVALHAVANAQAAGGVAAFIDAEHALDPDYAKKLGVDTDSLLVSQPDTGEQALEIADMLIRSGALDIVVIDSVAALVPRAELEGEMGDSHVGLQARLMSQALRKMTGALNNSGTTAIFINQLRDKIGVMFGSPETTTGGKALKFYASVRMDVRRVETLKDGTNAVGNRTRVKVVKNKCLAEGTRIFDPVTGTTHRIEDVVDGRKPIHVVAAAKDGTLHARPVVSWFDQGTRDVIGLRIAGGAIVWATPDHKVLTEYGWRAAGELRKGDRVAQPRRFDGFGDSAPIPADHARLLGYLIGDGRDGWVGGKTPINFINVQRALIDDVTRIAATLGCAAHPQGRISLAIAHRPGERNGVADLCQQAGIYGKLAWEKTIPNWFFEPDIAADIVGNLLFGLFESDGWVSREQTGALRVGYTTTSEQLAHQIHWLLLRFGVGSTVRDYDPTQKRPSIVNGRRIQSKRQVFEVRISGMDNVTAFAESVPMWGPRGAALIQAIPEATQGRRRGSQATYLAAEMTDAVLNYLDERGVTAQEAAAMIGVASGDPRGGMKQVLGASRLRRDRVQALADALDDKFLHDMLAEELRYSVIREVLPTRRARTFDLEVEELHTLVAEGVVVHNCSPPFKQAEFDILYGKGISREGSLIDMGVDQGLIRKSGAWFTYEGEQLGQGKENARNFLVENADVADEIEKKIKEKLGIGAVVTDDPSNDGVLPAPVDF
The experiment in a line: Fluorescence Cell-Free Homogeneous Dose Retest to Identify Inhibitors of RecA-Intein Splicing Activity. [Related pubchem assays (depositor defined):AID2097, AID2223, AID489010, AID492950]. In kind it is functional.

Series [4] concerns the target T5, Sentrin-specific protease 8 (Homo sapiens, UniProt Q96LD8).
T5 sequence (Q96LD8 whole entry): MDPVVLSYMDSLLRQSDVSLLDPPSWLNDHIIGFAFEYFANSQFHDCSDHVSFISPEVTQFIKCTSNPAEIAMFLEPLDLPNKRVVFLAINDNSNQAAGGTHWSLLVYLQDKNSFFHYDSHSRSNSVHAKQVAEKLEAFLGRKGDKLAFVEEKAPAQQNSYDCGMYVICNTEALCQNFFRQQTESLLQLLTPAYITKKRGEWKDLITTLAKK
In kind it is functional.

In series [5] the target is T5, Sentrin-specific protease 8. In kind it is functional. The source holds these as a separate data set.
Series [6] in a line: Luminescence Cell-Based Dose Retest to Confirm Inhibitors of Cancer Stem Cells. [Related pubchem assays (depositor defined):AID2717, AID2721]. Format: functional. Particulars: Homo sapiens.
Series [7] has as its target T6, Replicative DNA helicase DnaB (Mycobacterium tuberculosis, UniProt P9WMR3).
T6 sequence (P9WMR3 whole entry): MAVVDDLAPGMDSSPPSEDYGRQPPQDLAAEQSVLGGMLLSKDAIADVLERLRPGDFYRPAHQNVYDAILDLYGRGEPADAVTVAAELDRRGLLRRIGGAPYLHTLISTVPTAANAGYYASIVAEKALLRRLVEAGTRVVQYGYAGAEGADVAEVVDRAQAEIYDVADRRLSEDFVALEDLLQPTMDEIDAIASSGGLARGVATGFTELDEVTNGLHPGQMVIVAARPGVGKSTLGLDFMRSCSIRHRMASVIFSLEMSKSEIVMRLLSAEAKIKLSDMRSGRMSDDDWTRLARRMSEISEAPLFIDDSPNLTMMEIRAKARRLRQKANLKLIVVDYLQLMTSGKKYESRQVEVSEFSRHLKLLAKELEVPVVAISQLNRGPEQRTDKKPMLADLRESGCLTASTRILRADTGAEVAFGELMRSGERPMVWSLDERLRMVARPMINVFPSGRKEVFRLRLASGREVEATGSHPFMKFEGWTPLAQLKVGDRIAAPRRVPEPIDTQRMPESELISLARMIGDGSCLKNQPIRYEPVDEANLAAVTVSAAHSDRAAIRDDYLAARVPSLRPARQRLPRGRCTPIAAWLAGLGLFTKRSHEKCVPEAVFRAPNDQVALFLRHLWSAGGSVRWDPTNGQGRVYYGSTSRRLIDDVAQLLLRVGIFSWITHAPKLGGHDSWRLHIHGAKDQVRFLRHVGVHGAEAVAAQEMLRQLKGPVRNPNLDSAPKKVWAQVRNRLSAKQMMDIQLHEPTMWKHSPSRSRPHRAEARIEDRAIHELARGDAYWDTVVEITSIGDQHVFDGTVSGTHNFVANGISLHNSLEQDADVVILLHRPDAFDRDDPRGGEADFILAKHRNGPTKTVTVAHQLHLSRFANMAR
The experiment in a line: DnaB intein splicing inhibitors, dose response, biochemical, cell-free fluorescence (AID 449749). In kind it is functional.

In another series the target is Genome polyprotein (dengue virus type 2, UniProt P29990). The experiment in a line: Dengue-2 NS5 methyltransferase inhibitors, primary screen, biochemical, confirmation dose response (AID 588689). In kind it is functional.
Chain of Genome polyprotein (P29990 2492-3391 limits assumed): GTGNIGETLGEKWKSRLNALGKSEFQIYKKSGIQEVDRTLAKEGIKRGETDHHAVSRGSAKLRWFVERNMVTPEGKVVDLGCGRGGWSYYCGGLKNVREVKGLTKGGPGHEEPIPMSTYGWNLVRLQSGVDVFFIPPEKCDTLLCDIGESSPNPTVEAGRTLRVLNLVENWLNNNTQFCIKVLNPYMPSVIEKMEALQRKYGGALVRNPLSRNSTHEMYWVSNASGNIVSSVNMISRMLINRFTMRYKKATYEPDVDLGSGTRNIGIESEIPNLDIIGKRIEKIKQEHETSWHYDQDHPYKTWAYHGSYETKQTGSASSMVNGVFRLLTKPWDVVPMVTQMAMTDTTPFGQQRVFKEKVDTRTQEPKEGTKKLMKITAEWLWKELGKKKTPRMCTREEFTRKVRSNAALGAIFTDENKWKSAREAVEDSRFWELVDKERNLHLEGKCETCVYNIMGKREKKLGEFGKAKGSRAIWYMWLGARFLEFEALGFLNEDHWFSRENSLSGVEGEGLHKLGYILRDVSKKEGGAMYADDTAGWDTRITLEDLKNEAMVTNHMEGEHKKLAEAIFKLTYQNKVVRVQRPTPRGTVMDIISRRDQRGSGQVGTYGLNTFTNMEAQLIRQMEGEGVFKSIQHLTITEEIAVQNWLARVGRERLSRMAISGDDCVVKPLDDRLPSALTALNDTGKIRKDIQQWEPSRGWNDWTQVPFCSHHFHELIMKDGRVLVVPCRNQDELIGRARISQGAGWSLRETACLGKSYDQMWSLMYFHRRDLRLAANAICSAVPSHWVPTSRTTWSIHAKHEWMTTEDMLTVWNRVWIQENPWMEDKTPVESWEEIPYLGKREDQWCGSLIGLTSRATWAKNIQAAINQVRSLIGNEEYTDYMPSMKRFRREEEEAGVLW
The target of series [8] is Dual specificity tyrosine-phosphorylation-regulated kinase 1A (Rattus norvegicus, UniProt Q63470). In kind it is biochemical, Homo sapiens.

Chain of Cytochrome P450 2C9 (P11712 whole entry): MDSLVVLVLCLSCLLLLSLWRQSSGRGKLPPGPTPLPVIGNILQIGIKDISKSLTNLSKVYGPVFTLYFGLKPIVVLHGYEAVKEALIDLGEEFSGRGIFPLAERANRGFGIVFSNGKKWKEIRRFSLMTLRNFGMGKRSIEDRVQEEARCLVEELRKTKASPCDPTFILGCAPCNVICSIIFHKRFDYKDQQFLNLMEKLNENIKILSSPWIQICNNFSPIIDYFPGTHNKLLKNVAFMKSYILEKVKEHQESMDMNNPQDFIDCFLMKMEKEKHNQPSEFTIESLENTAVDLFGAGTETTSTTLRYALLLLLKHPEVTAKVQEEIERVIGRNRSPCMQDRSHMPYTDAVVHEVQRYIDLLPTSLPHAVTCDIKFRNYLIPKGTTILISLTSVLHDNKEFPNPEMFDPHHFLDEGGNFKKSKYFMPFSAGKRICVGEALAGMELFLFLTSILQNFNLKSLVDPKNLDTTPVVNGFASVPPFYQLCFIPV
Chain of Cytochrome P450 2C19 (P33261 whole entry): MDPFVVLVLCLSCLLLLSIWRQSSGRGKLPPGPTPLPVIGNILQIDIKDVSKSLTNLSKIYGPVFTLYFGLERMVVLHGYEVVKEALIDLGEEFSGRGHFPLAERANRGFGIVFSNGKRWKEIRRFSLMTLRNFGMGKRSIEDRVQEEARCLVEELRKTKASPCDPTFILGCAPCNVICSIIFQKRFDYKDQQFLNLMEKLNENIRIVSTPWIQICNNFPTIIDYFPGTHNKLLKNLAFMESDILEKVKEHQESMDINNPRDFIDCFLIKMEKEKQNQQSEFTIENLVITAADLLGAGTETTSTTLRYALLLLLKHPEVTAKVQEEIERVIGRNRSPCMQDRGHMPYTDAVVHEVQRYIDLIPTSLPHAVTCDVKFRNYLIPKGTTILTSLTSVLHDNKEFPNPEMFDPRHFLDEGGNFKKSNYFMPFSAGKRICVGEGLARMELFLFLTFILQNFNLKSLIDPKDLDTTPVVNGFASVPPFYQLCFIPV

For `NC(=O)C#CC(N)=O`, the GI50 in the series on SN12K1 was 12.9 µM (inactive); in the series on P388/ADR, 1.02 µM (active). Turning to `O=C1C2C3C=CC(CC3)C2C(=O)N1/N=C/c1ccccc1O` (configuration not stated), the AC50 at Cytochrome P450 1A2 is 1.78 µM (inconclusive); on Cytochrome P450 2C9 it was 14.1 µM (inconclusive); on Cytochrome P450 2C19, 15.8 µM (inconclusive); at Cytochrome P450 3A4, “inconclusive”. In the case of `COc1ccc(NC(=O)Nc2ccc3c(c2)C(=O)N([C@H](C)CO)C[C@H](C)[C@@H](CN(C)Cc2ccc(Cl)c(Cl)c2)OCCCC[C@@H](C)O3)cc1`, in series [1], the AC50 was 4.1 µM (active). Take `N#CC(C#N)=CC1=C2OC(c3ccccc3)=CC(c3ccccc3)=C2CCC1`: the IC50 in series [2] is > 40 µM (not active). For the same compound, the EC50 on Beta-galactosidase was > 40 µM (inactive). Turning to `C[C@@H]1CCCCO[C@@H](CN(C)C(=O)Nc2ccc(C(F)(F)F)cc2)[C@@H](C)CN([C@H](C)CO)C(=O)c2cc(NC(=O)Nc3ccccc3)ccc2O1`, the AC50 in series [1] was 3.75 µM (active). As to `C[C@@H]1CN([C@H](C)CO)C(=O)Cc2cc(NC(=O)Nc3cccc4ccccc34)ccc2O[C@@H]1CN(C)Cc1ccc2c(c1)OCO2`, the AC50 in [1] is 2.61 µM (active). On to `O=C(NCC(c1ccco1)N1CCCC1)c1cccc(S(=O)(=O)Nc2ccc(Br)cc2)c1` (configuration not stated), for which the IC50 in [3] is 45.8 µM (active). With `O=C(CCCN1CCc2[nH]c3ccc(F)cc3c2C1)c1ccc(F)cc1`, the IC50 in series [3] is 7.9 µM (active).

On to `CSCCC(NC(=O)COc1ccccc1)C(=O)OCC(=O)c1cc2ccccc2o1` (configuration not stated), for which, in series [2], the IC50 is reported as 31.2 µM (not active). For the same compound, the EC50 on Beta-galactosidase was > 40 µM (inactive).

In the case of `COc1ccc(-c2cc(=O)n(-c3ccc([N+](=O)[O-])cc3)[nH]2)cc1`, the EC50 on Protein RecA was 2.42 µM (active). In addition, the IC50 is 25.2 µM (active) in [4] and 17.6 µM (active) in [5]. In addition, the AC50 is 10 µM (active) in series [6] and 2.75 µM (active) in series [7].

As for `N#CC1(CCCN2CCCCC2)c2ccccc2CCc2ccccc21`, the IC50 in series [4] is 43.4 µM (active); in series [5] it was 35.4 µM (active). Regarding `O=C1NC(=O)/C(=C/c2ccc(-c3cc(C(=O)O)ccc3Cl)o2)S1`, the IC50 at Genome polyprotein was 49.4 µM (active). In addition, in series [8], the AC50 was 2.56 µM (active). In the case of `Cc1noc(C)c1S(=O)(=O)Nc1ccc2c(c1)CC(=O)N([C@H](C)CO)C[C@H](C)[C@H](CN(C)Cc1ccc(C(=O)Nc3ccccc3N)cc1)O2`, in [1], the AC50 was 2.36 µM (active). As to `COc1ccccc1NCC(=O)c1ccc(Cl)cc1`, the IC50 in series [2] is reported as 35.3 µM (not active). Further, the EC50 on Beta-galactosidase is > 40 µM (inactive).
